In ChEMBL document CHEMBL1146588, “Ancistrotanzanine A, the first 5,3'-coupled naphthylisoquinoline alkaloid, and two further, 5,8'-linked related compounds from the newly described species Ancistrocladus tanzaniensis” (J Nat Prod, 2003):
In brackets after ≈: the same amount, converted by molar mass.

How the values were obtained:
Leishmania donovani = assay: Antileishmanial activity against Leishmania donovani; format: functional, organism-based
[1] = system: Trypanosoma brucei rhodesiense; assay: Antitrypanosomal activity against Trypanosoma brucei rhodesiense; format: functional, organism-based
Plasmodium falciparum [2] = assay: Antimalarial activity against Plasmodium falciparum 3D7; format: functional, organism-based
Trypanosoma cruzi = assay: Antitrypanosomal activity against Trypanosoma cruzi; format: functional, organism-based
Plasmodium falciparum [3] = assay: Antimalarial activity against Plasmodium falciparum K1; format: functional, organism-based
[4] = Cytotoxicity against rat L6 cells; format: cell-based; conditions: read-out: MIC

IC50 (Leishmania donovani) [µg/mL] | IC50 [1] [µg/mL] | IC50 (Plasmodium falciparum [2]) [µg/mL] | IC50 (Trypanosoma cruzi) [µg/mL] | IC50 (Plasmodium falciparum [3]) [µg/mL] | SMILES | MCC [4] [µg/mL]
> 10 | 2.1 (≈ 4.98 µM) | 14 (≈ 33.2 µM) | 17.8 (≈ 42.2 µM) | 0.5 (≈ 1.19 µM) | COc1cc(OC)c2c(c1-c1ccc(OC)c3c(OC)cc(C)cc13)C[C@H](C)N[C@H]2C [ANCISTROTECTORILINE A] | 6.5
– | – | – | 0.42 (≈ 1.61 µM) | – | O=C(Cn1ccnc1[N+](=O)[O-])NCc1ccccc1 [BENZNIDAZOLE] | –
0.305 (≈ 0.748 µM) | – | – | – | – | CCCCCCCCCCCCCCCCOP(=O)([O-])OCC[N+](C)(C)C [MILTEFOSINE] | –

Continued, compound first:

SMILES | IC50 (Leishmania donovani) [µg/mL] | IC50 [1] [µg/mL] | IC50 (Plasmodium falciparum [2]) [µg/mL] | IC50 (Trypanosoma cruzi) [µg/mL] | IC50 (Plasmodium falciparum [3]) [µg/mL] | MCC [4] [µg/mL]
COc1cc(OC)c(-c2ccc(OC)c3c(OC)cc(C)cc23)c2c1C(C)=N[C@@H](C)C2 [ANCISTROEALAINE A] | 1.6 (≈ 3.81 µM) | 0.7 (≈ 1.67 µM) | 5 (≈ 11.9 µM) | 1.5 (≈ 3.58 µM) | 0.3 (≈ 0.715 µM) | 8.1
COc1cc(OC)c(-c2c(C)cc3cccc(OC)c3c2O)c2c1C(C)=N[C@@H](C)C2 [ANCISTROTANZANINE A] | 1.8 (≈ 4.44 µM) | 0.7 (≈ 1.73 µM) | – | 1.7 (≈ 4.19 µM) | 0.3 (≈ 0.74 µM) | 6.4
Nc1nc(N)nc(Nc2ccc([As]3SCC(CO)S3)cc2)n1 (stereo not given) [MELARSOPROL] | – | 0.001 | – | – | – | –
